Reference: US10703748B2, “Diazanaphthalen-3-yl carboxamides and preparation and use thereof” (Samumed, LLC, priority 2017, dated 2020)
Read-outs that look alike come from different tables or passages of the source.

Assays:
GSK3β kinase = GSK3β kinase (Homo sapiens, UniProt P49841); experiment: GSK3β kinase activity (Ser/Thr 09 peptide Z-lyte FRET assay); format: biochemical; conditions: recombinant kinase, 46 μM ATP, one hour at room temperature; read-out: EC50
[1] = test system: secreted cytokines TNFα, IL-6 and KC-GRO; experiment: Secreted cytokines in Lipopolysaccharide-stimulated BV-2 cells (Table 9 does not say which cytokine); format: cell-based, mouse; conditions: read-out: EC50
[2] = test system: α-smooth muscle actin (aSMA) positive LL29 cells; experiment: Inhibition of the fibrotic process: αSMA staining in TGF-β1 treated LL29 fibroblasts from IPF patients; conditions: for inhibition at 10 µM: read-out: percentage in parentheses after EC50 >10
[3] = test system: SW480 colon carcinoma cells; experiment: Cell viability assay (CellTiter-Glo); conditions: for inhibition at 10 µM: SW480, read-out: percent inhibition at 10 μM
[4] = test system: Wnt-responsive Sp5-Luc reporter in SW480 colon carcinoma cells; experiment: Screening assay for Wnt activity (Sp5-Luc reporter gene assay); conditions: for inhibition at 10 µM: SW480, read-out: percent inhibition at 10 μM
IL-6 = IL-6 inhibition in LPS-stimulated human peripheral blood mononuclear cells (HTRF); conditions: for inhibition at 10 µM: read-out: percentage in parentheses after EC50 >10
Description: Each compound was dissolved in DMSO (Catalog # D8418-100 ml, Sigma-Aldrich, St. Louis, Mo.) as a 10 mM stock and used to prepare compound source plates. […] After 22 hour incubation, a mixture of anti-IL6 XL665 and anti-IL-6 Cryptate diluted in reconstitution buffer (Catalog #62IL6PEC, Cisbio Inc., Bedford, Mass.) was added to each well. […] All samples were processed in duplicate. […] EC50 was determined using software generated by Dotmatics Limited (Windhill Bishops Stortford Herts, UK) using the Levenberg-Marquardt 4 parameter fitting procedure with finite different gradients.

DYRK1A kinase = DYRK1A kinase (Homo sapiens, UniProt Q13627); experiment: DYRK1A kinase activity (Ser/Thr 18 peptide Z-lyte FRET assay); format: biochemical; conditions: recombinant DYRK1A, 30 μM ATP, one hour at room temperature;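 also: kinase activity read as coumarin/fluorescein emission ratio after development step, with unphosphorylated and phosphorylated peptide forms setting 0% and 100% controls, values from dose-response curves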
[5] = test system: Tau phosphorylation at Ser396 (pSer396); experiment: Tau phosphorylation at Ser396 (pSer396) in SH-SY5Y cells, ELISA / western blot; format: cell-based, human; conditions: SH-SY5Y cells, overnight (16-18 h), read-out: pSer396 Tau EC50;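 also: decrease in pSer396 Tau measured in lysates of treated cells by colorimetric ELISA or chemiluminescent western blot, same pSer396 antibody for both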
Description: Two days before treatment, cells were seeded onto 96 well plates at 5×10^4 cells/well.
The above synthesized compounds were screened using the cell assay procedure to assess decrease Tau phosphorylation at Ser396 (pSer396) described below.
Cells were lysed with RIPA buffer complemented with phosphatase and protease inhibitors then lysates were spun down at 12,000 g for 10 min to remove any cellular debris.

Chain of GSK3β kinase (P49841 whole entry): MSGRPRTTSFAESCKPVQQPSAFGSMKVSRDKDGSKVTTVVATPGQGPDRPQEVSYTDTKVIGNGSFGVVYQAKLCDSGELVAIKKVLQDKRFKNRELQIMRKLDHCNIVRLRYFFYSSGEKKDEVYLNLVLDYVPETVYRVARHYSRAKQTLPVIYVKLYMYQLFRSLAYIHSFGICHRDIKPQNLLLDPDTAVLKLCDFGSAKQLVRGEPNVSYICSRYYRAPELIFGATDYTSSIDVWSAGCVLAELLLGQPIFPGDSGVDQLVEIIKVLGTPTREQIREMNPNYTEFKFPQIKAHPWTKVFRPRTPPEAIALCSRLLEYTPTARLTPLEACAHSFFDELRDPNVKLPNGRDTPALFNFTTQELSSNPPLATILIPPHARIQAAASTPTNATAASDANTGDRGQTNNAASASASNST

SMILES	EC50 (GSK3β kinase)	EC50 ([1]; Mus musculus, BV-2, 5 h)	EC50 ([2]; Homo sapiens, Fibroblast, 96 h)	EC50 ([3]; Homo sapiens, SW480, 96 h)	inhibition at 10 µM ([3]; Homo sapiens)	EC50 ([4]; Homo sapiens, SW480)	inhibition at 10 µM ([4]; Homo sapiens)	EC50 (IL-6; Homo sapiens, PBMC, 22 h)	inhibition at 10 µM (IL-6; Homo sapiens, PBMC)	EC50 (DYRK1A kinase)	EC50 ([5]; Homo sapiens)	EC50 ([1]; BV-2 cells, LPS 250 ng/mL 5 hours, compounds overnight, 10 μM to […], cytokine not named in Table 9)	EC50 ([2]; LL29 fibroblasts from IPF patients, TGF-β1 20 ng/mL, 4 days, curves from 10 μM to 0.94 nM)	EC50 ([3]; SW480 cells, four days, CellTiter-Glo)	EC50 ([4]; SW480 Sp5-Luc reporter cells, 36 to 48 hours)	percent inhibition at 10 μM ([4]; at 10 μM, given for EC50 of >10 μM, SW480 Sp5-Luc reporter)	EC50 (IL-6; huPBMCs, LPS 50 ng/mL, 22 hours, curves starting from 10 μM)	percentage in parentheses after EC50 >10 (IL-6; huPBMCs, LPS, given beside >10 μM, meaning not given)	EC50 [5]	inhibition at 10 µM ([2]; Homo sapiens, Fibroblast)
Cc1ncc(-c2ccc3cnc(NC(=O)C4CCN(C5COC5)CC4)cc3n2)s1 [Compound 4560, N-(2-(2-Methylthiazol-5-yl)-1,6-naphthyridin-7-yl)-1-(oxetan-3-yl) piperidine-4-carboxamide]	127 nM	117 nM	779 nM	> 10 µM	37.5%	> 10000 nM	49.7%	> 10 µM	2.7%	14 nM	992 nM	–	–	–	–	–	–	–	–	–
Cn1cc(-c2cc3cc(NC(=O)CCc4ccccc4)ncc3cn2)cn1 [Compound 3821, N-(6-(1-Methyl-1H-pyrazol-4-yl)-2,7-naphthyridin-3-yl)-3-phenylpropanamide]	1 nM	244 nM	313 nM	0.231 µM	–	176 nM	–	8.41 µM	–	7 nM	29 nM	–	–	–	–	–	–	–	–	–
O=C(Nc1cc2nc(-c3cnn4c3CN(CCF)CC4)ccc2cn1)C1CCC(F)(F)CC1 [Compound 317]	–	–	–	–	–	–	–	–	–	–	–	66 nM	935 nM	3.53 µM	> 10000 nM	50.0%	> 10 µM	8.0%	35 nM	–
CC(C)OCCC(=O)Nc1ncc2ccc(-c3cncn3C)cc2n1 [Compound 1322, 3-Isopropoxy-N-(7-(1-methyl-1H-imidazol-5-yl)quinazolin-2-yl)propanamide]	94 nM	–	2000 nM	> 10 µM	22.2%	1170 nM	–	> 10 µM	5.9%	52 nM	168 nM	–	–	–	–	–	–	–	–	–
O=C(Nc1ncc2ccc(-c3cncc(NCC4(F)CNC4)n3)cc2n1)C1CC1 [Compound 1777, N-(7-(6-(((3-Fluoroazetidin-3-yl)methyl)amino)pyrazin-2-yl)quinazolin-2-yl)cyclopropanecarboxamide]	98 nM	–	> 10000 nM	> 10 µM	27.6%	> 10000 nM	35.4%	> 10 µM	2.4%	5 nM	10000 nM	–	–	–	–	–	–	–	–	41.1%
COC1CCN(CC(=O)Nc2cc3nc(-c4cn(C)nn4)ccc3cn2)CC1 [Compound 358, 2-(4-Methoxypiperidin-1-yl)-N-(2-(1-methyl-1H-1,2,3-triazol-4-yl)-1,6-naphthyridin-7-yl)acetamide]	560 nM	–	> 10000 nM	> 10 µM	38%	189 nM	–	> 10 µM	2%	364 nM	1500 nM	–	–	–	–	–	–	–	–	9.8%
C[C@H]1CCCN1CC(=O)Nc1ncc2ccc(-c3cnn(C)c3)cc2n1 [Compound 954, (S)—N-(7-(1-Methyl-1H-pyrazol-4-yl)quinazolin-2-yl)-2-(2-methylpyrrolidin-1-yl)acetamide]	195 nM	–	2140 nM	> 10 µM	45.1%	> 10000 nM	29.6%	> 10 µM	5.7%	69 nM	1700 nM	–	–	–	–	–	–	–	–	–
COC1CCN(CC(=O)Nc2ncc3ccc(-c4cn(C)nn4)cc3n2)CC1 [Compound 1264, 2-(4-Methoxypiperidin-1-yl)-N-(7-(1-methyl-1H-1,2,3-triazol-4-yl)quinazolin-2-yl)acetamide]	17 nM	–	> 10000 nM	> 10 µM	27.8%	9710 nM	–	> 10 µM	7.9%	43 nM	902 nM	–	–	–	–	–	–	–	–	5.7%
CC(C)CN1CCC(CC(=O)Nc2cc3cc(-c4cnn(C)c4)ncc3cn2)C1 (stereo not shown) [Compound 3749, 2-(1-Isobutylpyrrolidin-3-yl)-N-(6-(1-methyl-1H-pyrazol-4-yl)-2,7-naphthyridin-3-yl)acetamide]	6 nM	–	167 nM	3.61 µM	–	92 nM	–	8.8 µM	–	10 nM	87 nM	–	–	–	–	–	–	–	–	–
CCN(CC)CC(=O)Nc1cc2cc(-c3cnn(C)c3CN3CCCCC3)ncc2cn1 [Compound 3910, 2-(Diethylamino)-N-(6-(1-methyl-5-(piperidin-1-ylmethyl)-1H-pyrazol-4-yl)-2,7-naphthyridin-3-yl)acetamide]	115 nM	–	1070 nM	3.54 µM	–	1240 nM	–	> 10 µM	4.2%	59 nM	989 nM	–	–	–	–	–	–	–	–	–
Cn1ncc(-c2cc3cc(NC(=O)c4ccnc(N5CCOCC5)c4)ncc3cn2)c1CN1CCOCC1 [Compound 3941, N-(6-(1-methyl-5-(morpholinomethyl)-1H-pyrazol-4-yl)-2,7-naphthyridin-3-yl)-2-morpholinoisonicotinamide]	79 nM	–	1190 nM	2.38 µM	–	1340 nM	–	> 10 µM	5.5%	6 nM	571 nM	–	–	–	–	–	–	–	–	–
Cn1cc(-c2cc3cc(NC(=O)c4ccnc(OC5CCNCC5)c4)ncc3cn2)cn1 [Compound 3780, N-(6-(1-Methyl-1H-pyrazol-4-yl)-2,7-naphthyridin-3-yl)-2-(piperidin-4-yloxy)isonicotinamide]	275 nM	–	4760 nM	2.26 µM	–	1530 nM	–	> 10 µM	6.7%	16 nM	> 10000 nM	–	–	–	–	–	–	–	–	–
O=C(Nc1ncc2ccc(-c3cncc(N[C@H]4CCNC[C@@H]4F)n3)cc2n1)C1CC1 [Compound 1785, N-(7-(6-(((3S,4S)-3-Fluoropiperidin-4-yl)amino)pyrazin-2-yl)quinazolin-2-yl)cyclopropanecarboxamide]	135 nM	–	4000 nM	> 10 µM	34.3%	4270 nM	–	> 10 µM	8.9%	7 nM	5660 nM	–	–	–	–	–	–	–	–	–
O=C(Nc1cc2cc(-c3cncc(NCC4(F)CNC4)n3)ncc2cn1)C1CC1 [Compound 4498, N-(6-(6-(((3-Fluoroazetidin-3-yl)methyl)amino)pyrazin-2-yl)-2,7-naphthyridin-3-yl)cyclopropanecarboxamide]	1 nM	–	436 nM	0.799 µM	–	383 nM	–	3.09 µM	–	2 nM	37 nM	–	–	–	–	–	–	–	–	–
